Experimental data: patent US11274332B2, “Methods of administering 3,4-diaminopyridine” (SERB SA, priority 2011, dated 2022)

How the values were obtained:
[1] = target: T1, cloned human Kv1.1 potassium channel (Homo sapiens, UniProt Q09470); experiment: PatchXpress inhibition of cloned human Kv1.1 in HEK293 cells (Example 6); format: cell-based; conditions: hKv1.1, up to 3000 μM
T1 construct: expressed in transfected cells
Text: (§1) The objective of this study was to examine the in vitro effects and determine the […] of 3,4-DAP phosphate and the metabolite N-(4-aminopyridin-3-yl) acetamide HCl on the following ion channels: cloned human Kv1.1 potassium channel (encoded by the human KCNA1 gene, expressed in HEK293 cells), cloned human Kv1.2 potassium channel (encoded by the human KCNA2 gene, expressed in HEK293 cells), cloned human Kv1.3 potassium channel (encoded by the human KCNA3 gene, expressed in CHO cells), cloned human Kv1.4 potassium channel (encoded by the human KCNA4 gene, expressed in HEK293 cells), cloned human Kv1.5 potassium channel (encoded by the human KCNA5 gene and expressed in CHO cells), responsible for IKur, ultra-rapid delayed rectifier potassium current.
(§2) Chemicals used in solution preparation were purchased from Sigma-Aldrich (St. Louis, Mo.), unless otherwise noted, and were of ACS reagent grade purity or higher. Stock solutions of each test article (100 mM, 30 mM and 1.00 mM 3,4-DAP phosphate and 100 mM N-(4-aminopyridin-3-yl)acetamide) were prepared in sterile water and stored refrigerated. […]
(§3) In preparation for a recording session, intracellular solution was loaded into the intracellular compartments of the Sealchip16. […] After establishment of a whole-cell configuration, membrane currents were recorded using dual-channel patch clamp amplifiers in the PatchXpress®. […]

[2] = target: T2, cloned human Kv1.3 potassium channel (Homo sapiens, UniProt P22001); experiment: PatchXpress inhibition of cloned human Kv1.3 in CHO cells (Example 6); format: cell-based; conditions: hKv1.3, up to 3000 μM
T2 construct: expressed in transfected cells
T2 sequence (P22001 whole entry): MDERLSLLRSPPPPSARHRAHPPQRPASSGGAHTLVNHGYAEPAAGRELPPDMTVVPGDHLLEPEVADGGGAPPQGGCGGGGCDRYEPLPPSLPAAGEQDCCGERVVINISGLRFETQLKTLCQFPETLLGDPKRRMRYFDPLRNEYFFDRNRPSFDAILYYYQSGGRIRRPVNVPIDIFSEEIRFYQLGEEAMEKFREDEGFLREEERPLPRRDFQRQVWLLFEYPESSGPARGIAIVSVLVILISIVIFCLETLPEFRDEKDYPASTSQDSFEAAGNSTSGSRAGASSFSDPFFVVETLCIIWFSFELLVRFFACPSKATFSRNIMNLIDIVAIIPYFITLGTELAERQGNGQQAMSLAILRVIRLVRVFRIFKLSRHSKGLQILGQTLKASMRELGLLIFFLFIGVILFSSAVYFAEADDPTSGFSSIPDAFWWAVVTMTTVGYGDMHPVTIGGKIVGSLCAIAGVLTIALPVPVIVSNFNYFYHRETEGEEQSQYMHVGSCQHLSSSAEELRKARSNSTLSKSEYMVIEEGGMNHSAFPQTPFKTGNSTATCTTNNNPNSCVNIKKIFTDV
Text: as §1, §2, §3

[3] = Rat PK study, IV and oral TID amifampridine phosphate (Example 4); format: in vivo; conditions: rat plasma
Procedure: The objective of this study was to determine the absolute bioavailability of amifampridine phosphate and the pharmacokinetics of amifampridine and its 3-N-acetyl metabolite upon single-dose IV and single-day oral dose (TID) administration.
Amifampridine phosphate was administered by IV bolus at 0.8 mg/kg (in saline) to 6 rats/sex and by oral gavage (in water) TID (approximately 6 hours apart) at dose levels of 2, 8, and 25 mg/kg/dose (equivalent to 6, 24, and 75 mg/kg/day) to 12 rats/sex/group, with oral Dose 1 given to fasted rats and Dose 2 and 3 with food ad libitum. For IV bolus dose and oral Dose 1 (dose administration No. 1), blood samples were collected from three animals/sex/timepoint at predose and 0.083 (IV only), 0.17, 0.25, 0.33, 0.5, 0.75, 1, 1.25 (IV only), 1.5, 2, 2.5, 3, and 6 hours post-dose; 0.17, 0.5, and 6 hours following the second oral dose (dose administration No. 2); and 0.17, 0.25, 0.33, 0.5, 0.75, 1, 1.5, 2, 3, 4, 6, 8, and 10 hours following the third oral dose (dose administration No. 3). The second and third oral doses were given at 6 and 12 hours, respectively, after the first dose. LC-MS/MS was used to quantify amifampridine, 3-N-acetyl and 4-N-acetyl amifampridine metabolites in rat plasma samples. […] Noncompartmental analysis was applied to the mean plasma amifampridine and 3-N-acetyl metabolite concentration data for male and female rats. […]

T1 sequence (Q09470 whole entry): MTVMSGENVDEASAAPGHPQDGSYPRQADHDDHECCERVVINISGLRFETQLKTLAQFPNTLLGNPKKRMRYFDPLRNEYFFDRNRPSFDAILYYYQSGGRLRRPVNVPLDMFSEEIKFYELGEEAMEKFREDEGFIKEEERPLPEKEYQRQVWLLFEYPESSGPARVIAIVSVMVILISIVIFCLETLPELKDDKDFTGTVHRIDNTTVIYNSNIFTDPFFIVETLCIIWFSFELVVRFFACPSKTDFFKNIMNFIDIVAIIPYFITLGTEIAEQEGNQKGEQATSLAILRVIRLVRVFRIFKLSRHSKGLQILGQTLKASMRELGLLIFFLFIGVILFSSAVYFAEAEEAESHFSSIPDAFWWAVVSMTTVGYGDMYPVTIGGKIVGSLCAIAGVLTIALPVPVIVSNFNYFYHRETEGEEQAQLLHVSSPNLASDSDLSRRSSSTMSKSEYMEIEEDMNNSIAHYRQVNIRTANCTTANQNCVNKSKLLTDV

activity on K+ channel [1]: inactive | activity on K+ channel ([1]; listed as N-acetyl metabolite): not active | activity on K+ channel [2]: inactive | activity on K+ channel ([2]; listed as N-acetyl metabolite): not active | abundance of major circulating metabolite relative to 3,4-DAP [3]: more abundant than 3,4-DAP
Compound: CC(=O)Nc1cnccc1N [3-N-acetyl amifampridine, N-(4-aminopyridin-3-yl)acetamide]
